Reference: PMC11695783 (Frontiers in Pharmacology, 2024)

System: Mycoplasma pneumoniae strain M129 (ATCC 29342)
Assay: Time-kill curves
Format: cell-based
Design: M. pneumoniae count in time-kill curve: unit not given here
Protocol: Mycoplasma pneumoniae strain M129 (ATCC 29342) was obtained from American Type Culture Collection (Manassas, VA, United States) and cultured at 37°C in the presence of 5% CO2 in the modified SP-4 liquid medium (pH 7.4) containing 2.1% (w/v) CM1166 mycoplasma broth base medium (Oxoid, Hants, United Kingdom), 20% (v/v) fetal bovine serum (FBS, Bioexplorer, CO, United States), 0.4% yeast extract (Oxoid), 0.55% (w/v) CMRL 1066 w/L-glutamine culture media powder (MyBioSource, San Diego, CA, United States), 1% D-glucose (Macklin) and 0.004% phenol red (Macklin). […] The solid medium is based on the above formula with the addition of 1% agar, and the characteristic fried egg-like colonies were used for experiments following incubation for 7 d on plates.
The tubes were incubated at 37°C in 5% CO2 for 72 h, and 200 µL of the culture was removed every 12 h for 10-fold serial dilutions. The diluted cultures were plated on plates for further culture and counted after 7 d. The experiment was repeated three times.

Question: Which results are given for O=C(O)c1cn(C2CC2)c2cc(N3CCNCC3)c(F)cc2c1=O [ciprofloxacin]?
Answer: M. pneumoniae count in time-kill curve (1×MIC, time 0): 7.07; M. pneumoniae count in time-kill curve (1×MIC, time 12): 6.346; M. pneumoniae count in time-kill curve (1×MIC, time 24): 6.462; M. pneumoniae count in time-kill curve (1×MIC, time 36): 6.137; M. pneumoniae count in time-kill curve (1×MIC, time 48): 6.414; M. pneumoniae count in time-kill curve (1×MIC, time 60): 6.605; M. pneumoniae count in time-kill curve (1×MIC, time 72): 5.901; M. pneumoniae count in time-kill curve (2×MIC, time 0): 7.07; M. pneumoniae count in time-kill curve (2×MIC, time 12): 6.0302; M. pneumoniae count in time-kill curve (2×MIC, time 24): 6.128; M. pneumoniae count in time-kill curve (2×MIC, time 36): 5.661; M. pneumoniae count in time-kill curve (2×MIC, time 48): 5.8; M. pneumoniae count in time-kill curve (2×MIC, time 60): 5.6841; M. pneumoniae count in time-kill curve (2×MIC, time 72): 4.597; M. pneumoniae count in time-kill curve (4×MIC, time 0): 7.07; M. pneumoniae count in time-kill curve (4×MIC, time 12): 5.551; M. pneumoniae count in time-kill curve (4×MIC, time 24): 5.334; M. pneumoniae count in time-kill curve (4×MIC, time 36): 5.292; M. pneumoniae count in time-kill curve (4×MIC, time 48): 5.137; M. pneumoniae count in time-kill curve (4×MIC, time 60): 5.179; M. pneumoniae count in time-kill curve (4×MIC, time 72): 4.3324; M. pneumoniae count in time-kill curve (8×MIC, time 0): 7.07; M. pneumoniae count in time-kill curve (8×MIC, time 12): 5.507; M. pneumoniae count in time-kill curve (8×MIC, time 24): 4.574; M. pneumoniae count in time-kill curve (8×MIC, time 36): 4.144; M. pneumoniae count in time-kill curve (8×MIC, time 48): 4.238; M. pneumoniae count in time-kill curve (8×MIC, time 60): 3.8395; M. pneumoniae count in time-kill curve (8×MIC, time 72): 3.628; M. pneumoniae count in time-kill curve (16×MIC, time 0): 7.07; M. pneumoniae count in time-kill curve (16×MIC, time 12): 5.235; M. pneumoniae count in time-kill curve (16×MIC, time 24): 4.279; M. pneumoniae count in time-kill curve (16×MIC, time 36): 3.946; M. pneumoniae count in time-kill curve (16×MIC, time 48): 3.861; M. pneumoniae count in time-kill curve (16×MIC, time 60): 3.824; M. pneumoniae count in time-kill curve (16×MIC, time 72): 3.354; M. pneumoniae count in time-kill curve (32×MIC, time 0): 7.07; M. pneumoniae count in time-kill curve (32×MIC, time 12): 4.952; M. pneumoniae count in time-kill curve (32×MIC, time 24): 4.119; M. pneumoniae count in time-kill curve (32×MIC, time 36): 3.694; M. pneumoniae count in time-kill curve (32×MIC, time 48): 3.873; M. pneumoniae count in time-kill curve (32×MIC, time 60): 3.5568; M. pneumoniae count in time-kill curve (32×MIC, time 72): 3.233; M. pneumoniae count in time-kill curve (64×MIC, time 0): 7.07; M. pneumoniae count in time-kill curve (64×MIC, time 12): 5.252; M. pneumoniae count in time-kill curve (64×MIC, time 24): 3.933; M. pneumoniae count in time-kill curve (64×MIC, time 36): 3.756; M. pneumoniae count in time-kill curve (64×MIC, time 48): 3.771; M. pneumoniae count in time-kill curve (64×MIC, time 60): 3.185; M. pneumoniae count in time-kill curve (64×MIC, time 72): 2.981
